Results: patent US10202361B2, “Pyridazinones as herbicides” (E I DU PONT DE NEMOURS AND COMPANY, priority 2014, dated 2019)

What was measured:
Assay in all cases: Test E pre-/postemergence greenhouse herbicide test
Type in all cases: in vivo
Details in all cases: Preemergence, scale 0 to 100
[1] = tested on: surinam grass (Brachiaria decumbens)
[2] = tested on: goosegrass (Eleusine indica)
[3] = tested on: arrowleaf sida (Sida rhombifolia)
Excerpt: (§1) Seeds of plant species selected from corn (Zea mays), soybean (Glycine max), lambsquarters (Chenopodium album), poinsettia, wild (wild poinsettia, Euphorbia heterophylla), pigweed, palmer (palmer pigweed, Amaranthus palmeri), waterhemp (common waterhemp, Amaranthus rudis), surinam grass (Brachiaria decumbens), crabgrass, large (large crabgrass Digitaria sanguinalis), crabgrass, Brazil (Brazilian crabgrass, Digitaria horizontalis), panicum, fall (fall panicum, Panicum dichotomiflorum), foxtail, giant (giant foxtail, Setaria faberii), foxtail, green (green foxtail, Setaria viridis), goosegrass (Eleusine indica), johnsongrass (Sorghum halepense), ragweed (common ragweed, Ambrosia elatior), barnyardgrass (Echinochloa crus-galli), sandbur (southern sandbur, Cenchrus echinatus), arrowleaf sida (Sida rhombifolia), ryegrass, Italian (Italian ryegrass, Lolium multiflorum), dayflower, VA (Virginia dayflower, Commelina virginica), field bindweed (Convolvulus arvensis), cocklebur (common cocklebur, Xanthium strumarium), morningglory (Ipomoea coccinea), nightshade (eastern black nightshade, Solanum ptycanthum), kochia (Kochia scoparia), nutsedge, yellow (yellow nutsedge, Cyperus esculentus), smartweed (ladysthumb smartweed, Polygonum persicaria), velvetleaf (Abutilon theophrasti), and beggarticks (hairy beggarticks, Bidens pilosa), were planted into a silt loam soil and treated preemergence with test chemicals formulated in a non-phytotoxic solvent mixture which included a surfactant.
(§2) At the same time, plants from these crop and weed species and also waterhemp_RES1, (ALS & Triazine resistant common waterhemp, Amaranthus rudis), and waterhemp_RES2, (ALS & HPPD resistant common waterhemp, Amaranthus rudis) were planted in pots containing Redi-Earth® planting medium (Scotts Company, 14111 Scottslawn Road, Marysville, Ohio 43041) comprising spaghnum peat moss, vermiculite, wetting agent and starter nutrients were treated with postemergence applications of test chemicals formulated in the same manner. Plants ranged in height from 2 to 18 cm for postemergence treatments (1- to 4-leaf stage). Treated plants and controls were maintained in a greenhouse for 14 to 21 d, after which time all species were compared to controls and visually evaluated. Plant response ratings, summarized in Table E, are based on a scale of 0 to 100 where 0 is no effect and 100 is complete control. A dash (-) response means no test result.

[4] = tested on: barnyardgrass (Echinochloa crus-galli)
Excerpt: as §1, §2

[5] = tested on: beggarticks (hairy beggarticks, Bidens pilosa)
Excerpt: as §1, §2

corn (Zea mays) = tested on: corn (Zea mays)
Excerpt: as §1, §2

[6] = tested on: dayflower, VA (Virginia dayflower, Commelina virginica)
Excerpt: as §1, §2

[7] = tested on: foxtail, giant (giant foxtail, Setaria faberii)
Excerpt: as §1, §2

[8] = tested on: lambsquarters (Chenopodium album)
Excerpt: as §1, §2

[9] = tested on: morningglory (Ipomoea coccinea)
Excerpt: as §1, §2

[10] = tested on: nightshade (eastern black nightshade, Solanum ptycanthum)
Excerpt: as §1, §2

[11] = tested on: pigweed, palmer (palmer pigweed, Amaranthus palmeri)
Excerpt: as §1, §2

[12] = tested on: ryegrass, Italian (Italian ryegrass, Lolium multiflorum)
Excerpt: as §1, §2

[13] = tested on: sandbur (southern sandbur, Cenchrus echinatus)
Excerpt: as §1, §2

[14] = tested on: velvetleaf (Abutilon theophrasti)
Excerpt: as §1, §2

[15] = tested on: waterhemp (common waterhemp, Amaranthus rudis)
Excerpt: as §1, §2

`CCOc1cc(=O)n(-c2ccc(F)cc2)nc1Cc1ccnc(C(F)(F)F)c1` [Compound 25, 5-ethoxy-2-(4-fluorophenyl)-6-[[2-(trifluoromethyl)-4-pyridinyl]methyl]-3 (2H)-pyridazinone] was tested, and the “Plant response rating: Surinam Grass” value ([1]; 8 g ai/ha) was 5, the “Plant response rating: Surinam Grass” value ([1]; 16 g ai/ha) was 10 and the “Plant response rating: Surinam Grass” value ([1]; 31 g ai/ha) was 80. The “Plant response rating: Surinam Grass” value ([1]; 62 g ai/ha) was 100, the “Plant response rating: Surinam Grass” value ([1]; 125 g ai/ha) was 100 and the “Plant response rating: Goosegrass” value ([2]; 8 g ai/ha) was 5. The “Plant response rating: Goosegrass” value ([2]; 16 g ai/ha) was 5, the “Plant response rating: Goosegrass” value ([2]; 31 g ai/ha) was 15 and the “Plant response rating: Goosegrass” value ([2]; 62 g ai/ha) was 75. The “Plant response rating: Goosegrass” value ([2]; 125 g ai/ha) was 98, the “Plant response rating: Arrowleaf Sida” value ([3]; 8 g ai/ha) was 0 and the “Plant response rating: Arrowleaf Sida” value ([3]; 16 g ai/ha) was 5. For the same compound, the “Plant response rating: Arrowleaf Sida” value ([3]; 31 g ai/ha) was 5, the “Plant response rating: Arrowleaf Sida” value ([3]; 62 g ai/ha) was 35 and the “Plant response rating: Arrowleaf Sida” value ([3]; 125 g ai/ha) was 40. For the same compound, the “Plant response rating: Barnyardgrass” value ([4]; 8 g ai/ha) was 0, the “Plant response rating: Barnyardgrass” value ([4]; 16 g ai/ha) was 5 and the “Plant response rating: Barnyardgrass” value ([4]; 31 g ai/ha) was 15. The “Plant response rating: Barnyardgrass” value ([4]; 62 g ai/ha) was 35, the “Plant response rating: Barnyardgrass” value ([4]; 125 g ai/ha) was 60 and the “Plant response rating: Beggarticks” value ([5]; 8 g ai/ha) was 0. For the same compound, the “Plant response rating: Beggarticks” value ([5]; 16 g ai/ha) was 0, the “Plant response rating: Beggarticks” value ([5]; 31 g ai/ha) was 0 and the “Plant response rating: Beggarticks” value ([5]; 62 g ai/ha) was 0. For the same compound, the “Plant response rating: Beggarticks” value ([5]; 125 g ai/ha) was 15, the “Plant response rating: Corn” value (corn (Zea mays); 8 g ai/ha) was 0 and the “Plant response rating: Corn” value (corn (Zea mays); 16 g ai/ha) was 10. For the same compound, the “Plant response rating: Corn” value (corn (Zea mays); 31 g ai/ha) was 25, the “Plant response rating: Corn” value (corn (Zea mays); 62 g ai/ha) was 40 and the “Plant response rating: Corn” value (corn (Zea mays); 125 g ai/ha) was 35. For the same compound, the “Plant response rating: Dayflower, VA” value ([6]; 8 g ai/ha) was 0, the “Plant response rating: Dayflower, VA” value ([6]; 16 g ai/ha) was 0 and the “Plant response rating: Dayflower, VA” value ([6]; 31 g ai/ha) was 15. The “Plant response rating: Dayflower, VA” value ([6]; 62 g ai/ha) was 20, the “Plant response rating: Dayflower, VA” value ([6]; 125 g ai/ha) was 70 and the “Plant response rating: Foxtail, Giant” value ([7]; 8 g ai/ha) was 0. For the same compound, the “Plant response rating: Foxtail, Giant” value ([7]; 16 g ai/ha) was 0, the “Plant response rating: Foxtail, Giant” value ([7]; 31 g ai/ha) was 0 and the “Plant response rating: Foxtail, Giant” value ([7]; 62 g ai/ha) was 5. For the same compound, the “Plant response rating: Foxtail, Giant” value ([7]; 125 g ai/ha) was 20, the “Plant response rating: Lambsquarters” value ([8]; 8 g ai/ha) was 65 and the “Plant response rating: Lambsquarters” value ([8]; 16 g ai/ha) was 98. The “Plant response rating: Lambsquarters” value ([8]; 31 g ai/ha) was 100, the “Plant response rating: Lambsquarters” value ([8]; 62 g ai/ha) was 100 and the “Plant response rating: Lambsquarters” value ([8]; 125 g ai/ha) was 100. The “Plant response rating: Morningglory” value ([9]; 8 g ai/ha) was 0, the “Plant response rating: Morningglory” value ([9]; 16 g ai/ha) was 0 and the “Plant response rating: Morningglory” value ([9]; 31 g ai/ha) was 5. For the same compound, the “Plant response rating: Morningglory” value ([9]; 62 g ai/ha) was 50, the “Plant response rating: Morningglory” value ([9]; 125 g ai/ha) was 65 and the “Plant response rating: Nightshade” value ([10]; 8 g ai/ha) was 5. The “Plant response rating: Nightshade” value ([10]; 16 g ai/ha) was 50, the “Plant response rating: Nightshade” value ([10]; 31 g ai/ha) was 80 and the “Plant response rating: Nightshade” value ([10]; 62 g ai/ha) was 98. For the same compound, the “Plant response rating: Nightshade” value ([10]; 125 g ai/ha) was 100, the “Plant response rating: Pigweed, Palmer” value ([11]; 8 g ai/ha) was 0 and the “Plant response rating: Pigweed, Palmer” value ([11]; 16 g ai/ha) was 95. For the same compound, the “Plant response rating: Pigweed, Palmer” value ([11]; 31 g ai/ha) was 95, the “Plant response rating: Pigweed, Palmer” value ([11]; 62 g ai/ha) was 100 and the “Plant response rating: Pigweed, Palmer” value ([11]; 125 g ai/ha) was 100. The “Plant response rating: Ryegrass, Italian” value ([12]; 8 g ai/ha) was 0, the “Plant response rating: Ryegrass, Italian” value ([12]; 16 g ai/ha) was 30 and the “Plant response rating: Ryegrass, Italian” value ([12]; 31 g ai/ha) was 30. The “Plant response rating: Ryegrass, Italian” value ([12]; 62 g ai/ha) was 40, the “Plant response rating: Ryegrass, Italian” value ([12]; 125 g ai/ha) was 50 and the “Plant response rating: Sandbur” value ([13]; 8 g ai/ha) was 0. For the same compound, the “Plant response rating: Sandbur” value ([13]; 16 g ai/ha) was 0, the “Plant response rating: Sandbur” value ([13]; 31 g ai/ha) was 20 and the “Plant response rating: Sandbur” value ([13]; 62 g ai/ha) was 30. For the same compound, the “Plant response rating: Sandbur” value ([13]; 125 g ai/ha) was 60, the “Plant response rating: Velvetleaf” value ([14]; 8 g ai/ha) was 0 and the “Plant response rating: Velvetleaf” value ([14]; 16 g ai/ha) was 20. For the same compound, the “Plant response rating: Velvetleaf” value ([14]; 31 g ai/ha) was 0, the “Plant response rating: Velvetleaf” value ([14]; 62 g ai/ha) was 30 and the “Plant response rating: Velvetleaf” value ([14]; 125 g ai/ha) was 80. The “Plant response rating: Waterhemp” value ([15]; 8 g ai/ha) was 35, the “Plant response rating: Waterhemp” value ([15]; 16 g ai/ha) was 50 and the “Plant response rating: Waterhemp” value ([15]; 31 g ai/ha) was 100. For the same compound, the “Plant response rating: Waterhemp” value ([15]; 62 g ai/ha) was 100 and the “Plant response rating: Waterhemp” value ([15]; 125 g ai/ha) was 100.
